Reference: patent US9469650B2, “Melampomagnolide B derivatives” (BOARD OF TRUSTEES OF THE UNIVERSITY OF ARKANSAS, priority 2013, dated 2016)

What was measured:
HOP-62 = assay: panel of 60 human tumor cell lines, growth inhibition (Non-Small Cell Lung Cancer); conditions: HOP-62
SN12C = assay: panel of 60 human tumor cell lines, growth inhibition (Renal Cancer)
LOX IMVI = assay: panel of 60 human tumor cell lines, growth inhibition (Melanoma)
SK-OV-3 = assay: panel of 60 human tumor cell lines, growth inhibition (Ovarian Cancer); conditions: SK-OV-3
MDA-MB-231/ATCC = assay: panel of 60 human tumor cell lines, growth inhibition (Breast Cancer); conditions: MDA-MB-231/ATCC
CCRF-CEM = assay: panel of 60 human tumor cell lines, growth inhibition (Leukemia)
UO-31 = assay: panel of 60 human tumor cell lines, growth inhibition (Renal Cancer); conditions: UO-31
786-0 = assay: as above; conditions: 786-0
SR = assay: panel of 60 human tumor cell lines, growth inhibition (Leukemia)
ACHN = assay: panel of 60 human tumor cell lines, growth inhibition (Renal Cancer)

SMILES: C=C1C(=O)O[C@H]2[C@H]1CC/C(COC(=O)N1CCN(C)CC1)=C\CC[C@@]1(C)O[C@@H]21 [JVM 2-44]
- GI50 (HOP-62): 27.3 µM
- TGI (HOP-62): >1.00E−4
- Mean Optical Densities (HOP-62; Log10 Concentration −4.0): 0.936
- Percent Growth (HOP-62; Log10 Concentration −4.0): 7%
- Mean Optical Densities (HOP-62; Log10 Concentration −5.0): 2.007
- Percent Growth (HOP-62; Log10 Concentration −5.0): 83%
- Mean Optical Densities (HOP-62; Log10 Concentration −6.0): 2.174
- Percent Growth (HOP-62; Log10 Concentration −6.0): 95%
- Mean Optical Densities (HOP-62; Log10 Concentration −7.0): 2.046
- Percent Growth (HOP-62; Log10 Concentration −7.0): 86%
- Mean Optical Densities (HOP-62; Log10 Concentration −8.0): 2.193
- Percent Growth (HOP-62; Log10 Concentration −8.0): 96%
- CC50 (CAKI-1): 42.8 µM
- GI50 (SN12C): 4.4 µM
- TGI (SN12C): 2.80E−5
- Mean Optical Densities (SN12C; Log10 Concentration −4.0): 0.189
- Percent Growth (SN12C; Log10 Concentration −4.0): −64%
- Mean Optical Densities (SN12C; Log10 Concentration −5.0): 0.932
- Percent Growth (SN12C; Log10 Concentration −5.0): 28%
- Mean Optical Densities (SN12C; Log10 Concentration −6.0): 1.835
- Percent Growth (SN12C; Log10 Concentration −6.0): 90%
- Mean Optical Densities (SN12C; Log10 Concentration −7.0): 1.898
- Percent Growth (SN12C; Log10 Concentration −7.0): 94%
- Mean Optical Densities (SN12C; Log10 Concentration −8.0): 1.940
- Percent Growth (SN12C; Log10 Concentration −8.0): 97%
- GI50 (LOX IMVI): 12.4 µM
- TGI (LOX IMVI): 2.63E−5
- Mean Optical Densities (LOX IMVI; Log10 Concentration −4.0): 0.051
- Percent Growth (LOX IMVI; Log10 Concentration −4.0): −89%
- Mean Optical Densities (LOX IMVI; Log10 Concentration −5.0): 1.794
- Percent Growth (LOX IMVI; Log10 Concentration −5.0): 64%
- Percent Growth (LOX IMVI; Log10 Concentration −6.0): 96%
- Mean Optical Densities (LOX IMVI; Log10 Concentration −7.0): 2.419
- Percent Growth (LOX IMVI; Log10 Concentration −7.0): 94%
- Mean Optical Densities (LOX IMVI; Log10 Concentration −8.0): 2.424
- Percent Growth (LOX IMVI; Log10 Concentration −8.0): 94%
- CC50 (T-47D): 82.3 µM
- GI50 (SK-OV-3): 31.8 µM
- TGI (SK-OV-3): >1.00E−4
- Mean Optical Densities (SK-OV-3; Log10 Concentration −4.0): 1.032
- Percent Growth (SK-OV-3; Log10 Concentration −4.0): 4%
- Mean Optical Densities (SK-OV-3; Log10 Concentration −5.0): 1.852
- Percent Growth (SK-OV-3; Log10 Concentration −5.0): 96%
- Mean Optical Densities (SK-OV-3; Log10 Concentration −6.0): 1.892
- Percent Growth (SK-OV-3; Log10 Concentration −6.0): 101%
- Mean Optical Densities (SK-OV-3; Log10 Concentration −7.0): 1.808
- Percent Growth (SK-OV-3; Log10 Concentration −7.0): 91%
- Mean Optical Densities (SK-OV-3; Log10 Concentration −8.0): 1.885
- Percent Growth (SK-OV-3; Log10 Concentration −8.0): 100%
- GI50 (MDA-MB-231/ATCC): 10.4 µM
- TGI (MDA-MB-231/ATCC): 2.64E−5
- Mean Optical Densities (MDA-MB-231/ATCC; Log10 Concentration −4.0): 0.200
- Percent Growth (MDA-MB-231/ATCC; Log10 Concentration −4.0): −72%
- Mean Optical Densities (MDA-MB-231/ATCC; Log10 Concentration −5.0): 1.153
- Percent Growth (MDA-MB-231/ATCC; Log10 Concentration −5.0): 52%
- Mean Optical Densities (MDA-MB-231/ATCC; Log10 Concentration −6.0): 1.525
- Percent Growth (MDA-MB-231/ATCC; Log10 Concentration −6.0): 95%
- Mean Optical Densities (MDA-MB-231/ATCC; Log10 Concentration −7.0): 1.568
- Percent Growth (MDA-MB-231/ATCC; Log10 Concentration −7.0): 106%
- Mean Optical Densities (MDA-MB-231/ATCC; Log10 Concentration −8.0): 1.619
- Percent Growth (MDA-MB-231/ATCC; Log10 Concentration −8.0): 106%
- GI50 (CCRF-CEM): 3.06 µM
- TGI (CCRF-CEM): 1.84E−5
- Mean Optical Densities (CCRF-CEM; Log10 Concentration −4.0): 0.393
- Percent Growth (CCRF-CEM; Log10 Concentration −4.0): −25%
- Mean Optical Densities (CCRF-CEM; Log10 Concentration −5.0): 0.689
- Percent Growth (CCRF-CEM; Log10 Concentration −5.0): 9%
- Mean Optical Densities (CCRF-CEM; Log10 Concentration −6.0): 2.185
- Percent Growth (CCRF-CEM; Log10 Concentration −6.0): 89%
- Mean Optical Densities (CCRF-CEM; Log10 Concentration −7.0): 2.250
- Percent Growth (CCRF-CEM; Log10 Concentration −7.0): 92%
- Mean Optical Densities (CCRF-CEM; Log10 Concentration −8.0): 2.265
- Percent Growth (CCRF-CEM; Log10 Concentration −8.0): 93%
- GI50 (UO-31): 3.08 µM
- TGI (UO-31): 1.54E−5
- Mean Optical Densities (UO-31; Log10 Concentration −4.0): 0.127
- Percent Growth (UO-31; Log10 Concentration −4.0): −83%
- Mean Optical Densities (UO-31; Log10 Concentration −5.0): 0.983
- Percent Growth (UO-31; Log10 Concentration −5.0): 19%
- Mean Optical Densities (UO-31; Log10 Concentration −6.0): 1.744
- Percent Growth (UO-31; Log10 Concentration −6.0): 80%
- Mean Optical Densities (UO-31; Log10 Concentration −7.0): 1.737
- Percent Growth (UO-31; Log10 Concentration −7.0): 79%
- Mean Optical Densities (UO-31; Log10 Concentration −8.0): 1.731
- Percent Growth (UO-31; Log10 Concentration −8.0): 79%
- GI50 (786-0): 6.53 µM
- TGI (786-0): 2.42E−5
- Mean Optical Densities (786-0; Log10 Concentration −4.0): 0.194
- Percent Growth (786-0; Log10 Concentration −4.0): −64%
- Mean Optical Densities (786-0; Log10 Concentration −5.0): 1.194
- Percent Growth (786-0; Log10 Concentration −5.0): 40%
- Mean Optical Densities (786-0; Log10 Concentration −6.0): 2.074
- Percent Growth (786-0; Log10 Concentration −6.0): 94%
- Mean Optical Densities (786-0; Log10 Concentration −7.0): 2.022
- Percent Growth (786-0; Log10 Concentration −7.0): 91%
- Mean Optical Densities (786-0; Log10 Concentration −8.0): 2.113
- Percent Growth (786-0; Log10 Concentration −8.0): 96%
- GI50 (SR): 2.81 µM
- TGI (SR): 3.33E−5
- Mean Optical Densities (SR; Log10 Concentration −4.0): 0.332
- Percent Growth (SR; Log10 Concentration −4.0): −14%
- Mean Optical Densities (SR; Log10 Concentration −5.0): 0.534
- Percent Growth (SR; Log10 Concentration −5.0): 16%
- Mean Optical Densities (SR; Log10 Concentration −6.0): 1.105
- Percent Growth (SR; Log10 Concentration −6.0): 78%
- Mean Optical Densities (SR; Log10 Concentration −7.0): 1.224
- Percent Growth (SR; Log10 Concentration −7.0): 91%
- Mean Optical Densities (SR; Log10 Concentration −8.0): 1.227
- Percent Growth (SR; Log10 Concentration −8.0): 91%
- GI50 (ACHN): 3.83 µM
- TGI (ACHN): 1.59E−5
- Mean Optical Densities (ACHN; Log10 Concentration −4.0): 0.112
- Percent Growth (ACHN; Log10 Concentration −4.0): −77%
- Mean Optical Densities (ACHN; Log10 Concentration −5.0): 0.773
